Test results from US12565467B2, “Compounds, compositions, and methods for the treatment of inflammatory, degenerative, and neurodegenerative diseases” (Board of Supervisors of Louisiana State University and …, priority 2015, dated 2026).
“Also recorded” adds a separate entry of the source.

Columns and labels:
[1] = test system: human retinal pigment epithelial cells (ARPE-19, HRPE); assay: Formation of hydroxylated derivatives from VLC-PUFA in human RPE cells in culture (LC-MS/MS); type: in vitro ADME; conditions: 34:6n3 100 nM, 12-16 hours, culture media
Experimental: FIG. 2. Evidence of cell-derived hydroxylated derivatives (29-hydroxy-34:6 and 22,29-dihydroxy-34:6) derived from the omega-3 VLC-PUFA 34:6n3 (C34:6) from human retinal pigment epithelial cells in culture. Human retinal pigment epithelial cells (spontaneously transformed ARPE-19 cells) or primary human retinal pigment epithelial cells (HRPE) were incubated with 34:6n3 (100 nM) during 12-16 hours and then the culture media collected lipid extracted and run in LC-MS/MS.
Evidence for the formation of hydroxylated VLC-PUFA in cells as postulated in FIG. 1, and as documented in FIG. 2. […] The preferred structures of 2 are 2a and 2b, while the preferred structures of 3 are 3a and 3b. […] The cell-derived hydroxylated derivatives 2 and 3 were obtained from human retinal pigment epithelial cells in culture. Human retinal pigment epithelial cells (spontaneously transformed ARPE-19 cells) or primary human retinal pigment epithelial cells (HRPE) were incubated with 34:6n3 (100 nM) during 12-16 hours and then the culture media collected lipid extracted and run in LC-MS/MS. […] The stereochemistry of the mono- and di-hydroxy compounds were not possible to determine, but they were presumed to be the same as those derived from DHA.

[2] = test system: Bid; assay: Bid protein by western blot in ARPE-19 cells under oxidative stress; type: cell-based, human
From the text: FIG. 6. (A) VLC-PUFA and elovanoids ELV1 and ELV2 mediated effect on Bid upregulation in ARPE-19 cells under stress. […] (B) VLC-PUFA and ELV1 and ELV2 compounds mediated upregulation of Bid in ARPE-19 cells under stress.
FIG. 6—(A) VLC-PUFA and elovanoids ELV1 and ELV2 mediated effect on Bid upregulation in ARPE-19 cells under stress. […] (B) VLC-PUFA and ELV1 and ELV2 compounds mediated upregulation of Bid in ARPE-19 cells under stress.

[3] = test system: Bim; assay: Bim protein in ARPE-19 cells under oxidative stress; type: cell-based, human; conditions: ARPE-19 cells under stress
From the text: (§1) FIG. 7. (A) VLC-PUFA and ELV1 and ELV2 compounds mediated downregulation of Bim in ARPE-19 cells under stress. Bim, another class of Bcl2 family, has been tested like Bid in this figure to confirm our previous results. VLC-PUFA and elovanoids protected against the upregulation of Bim by OS, similar to Bid, in RPE cells under stress. (B) VLC-PUFA and elovanoids mediated effect on Bim downregulation in ARPE-19 cells under stress.
as §1, with “7—A)” for “7. (A)”, “[…]” for “downregulation”, “protected” for “protected against”

[4] = test system: Bcl-xL; assay: Bcl-xL protein in ARPE-19 cells under oxidative stress; type: cell-based, human; conditions: ARPE-19 cells under OS
Experimental: (§2) FIG. 8. (A) Bcl-xL-upregulation by elovanoids ELV1 and ELV2 in ARPE-19 cells under stress. Bcl-xL is the antiapoptotic Bcl2 family protein. Like proapoptotic proteins Bid and Bim, the effect of elovaniod precursors on the antiapoptotic protein Bcl-xL was tested in this figure in RPE cells under OS. […] (B) Effect of NPD1, ELV1 and ELV2 on Bax expression in LOX-D cells under stress. Proapoptotic Bax was tested in this figure. […] C) VLC-PUFA and elovanoids ELV1 and ELV2 mediated effect on Bax upregulation in ARPE-19 cells under stress. In this experiment, elovanoid precursors along with VLC-PUFA were tested on the downregulation of the Bax protein in RPE cells under stress.
as §2, with “8—(A)” for “8. (A)”

[5] = test system: Bcl2; assay: Bcl2 protein in RPE (LOX-D / ARPE-19) cells under oxidative stress; type: cell-based, human
From the text: FIG. 9. (A) VLC-PUFA and elovanoids ELV1 and ELV2 mediated effect on Bcl2 upregulation in ARPE-19 cells under stress. In this experiment we tested the effect of elovanoid precursors on Bcl2 upregulation along with VLC-PUFA in stressed RPE. (B) Quantification of Bcl2 upregulation by NPD1, ELV1 and ELV2 in LOX-D cells. Bcl2 is an important antiapoptotic protein of the Bcl2 family protein.
FIG. 9—(A) VLC-PUFA and elovanoids ELV1 and ELV2 mediated effect on Bcl2 upregulation in ARPE-19 cells under stress. In this experiment we tested the effect of elovaniod precursors on Blc2 upregulation along with VLC-PUFA in stressed RPE. (B) Quantification of Bcl2 upregulation by NPD1, ELV1 and ELV2 in LOX-D cells. Bcl2 is an important antiapoptotic protein of the Bcl2 family protein.

| Compound | conversion to mono- and di-hydroxylated derivatives in cell culture (FIG. 2) [1] | effect on Bid protein upregulated by OS (FIG. 6) [2] | effect on Bim upregulation by OS (FIG. 7) [3] | effect on antiapoptotic Bcl-xL protein (FIG. 8A) [4] | effect on Bcl2 protein (FIG. 9) [5] |
| --- | --- | --- | --- | --- | --- |
| CC/C=C\C/C=C\C/C=C\C/C=C\C/C=C\C/C=C\CCCCCCCCCCCCCCC(=O)O [C34:6] | yielded a hydroxylated product; also recorded: could be detected |  |  |  |  |
| CC/C=C\C[C@H](O)\C=C/C=C/C=C/[C@H](O)C/C=C\C/C=C\CCCCCCCCCCCCCCC(=O)O [ELV2, (16Z,19Z,22R,23E,25E,27Z,29S,31Z)-22,29-dihydroxytetratriaconta-16,19,23,25,27,31-hexaenoic acid] |  | potent downregulation | potent downregulation | potent upregulation | potent upregulation |
